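Exposure lasted 48 hours, with cells grown in 96-well plates and compounds tested at five concentrations. TGI marks complete inhibition of growth.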
What was measured:
Assay in all cases: growth of human tumour cells (NCI), 48 h
A549 NSCLC = test system: A549 NSCLC
ACHN renal = test system: ACHN renal
DU-145 prostate = test system: DU-145 prostate
EKVX NSCLC = test system: EKVX NSCLC
HCT-15 colon = test system: HCT-15 colon
HL-60(TB) leukemia = test system: HL-60(TB) leukemia
MDA-MB-231 breast = test system: MDA-MB-231 breast
MDA-MB-435 = test system: MDA-MB-435
NCI-H23 lung = test system: NCI-H23 lung
NCI-H460 lung = test system: NCI-H460 lung
NCI/ADR-RES ovarian = test system: NCI/ADR-RES ovarian
SF-295 CNS = test system: SF-295 CNS
SK-MEL-28 melanoma = test system: SK-MEL-28 melanoma
SNB-75 CNS = test system: SNB-75 CNS
SW-620 colon = test system: SW-620 colon
UACC-62 melanoma = test system: UACC-62 melanoma
CAKI-1 renal = test system: CAKI-1 renal
UO-31 renal = test system: UO-31 renal
BT-549 breast = test system: BT-549 breast
MCF7 breast = test system: MCF7 breast

| Structure (SMILES) | TGI (A549 NSCLC) | TGI (ACHN renal) | TGI (DU-145 prostate) | TGI (EKVX NSCLC) | TGI (HCT-15 colon) | TGI (HL-60(TB) leukemia) | TGI (MDA-MB-231 breast) | TGI (MDA-MB-435) | TGI (NCI-H23 lung) | TGI (NCI-H460 lung) | TGI (NCI/ADR-RES ovarian) | TGI (SF-295 CNS) | TGI (SK-MEL-28 melanoma) | TGI (SNB-75 CNS) | TGI (SW-620 colon) | TGI (UACC-62 melanoma) | TGI (CAKI-1 renal) | TGI (UO-31 renal) | TGI (BT-549 breast) | TGI (MCF7 breast) |
| --- | --- | --- | --- | --- | --- | --- | --- | --- | --- | --- | --- | --- | --- | --- | --- | --- | --- | --- | --- | --- |
| CN(C)CCCN1c2ccc([N+](=O)[O-])cc2CCc2cccc([N+](=O)[O-])c21 | 29.5 µM | 31.5 µM | 31.2 µM | 39.1 µM | 30.5 µM | 37 µM | 26.1 µM | 27.7 µM | 31.2 µM | 29.2 µM | 30.4 µM | 28.2 µM | 30.1 µM | 26.5 µM | 39.5 µM | 10.4 µM | – | – | – | – |
| C[n+]1c2ccccc2c(NCC(=O)O)c2ccccc21 | > 100 µM | > 100 µM | – | > 100 µM | > 100 µM | > 100 µM | – | – | > 100 µM | > 100 µM | – | > 100 µM | – | > 100 µM | > 100 µM | > 100 µM | > 100 µM | > 100 µM | – | – |
| Cc1c2n(c(=O)[nH]c1=O)C1OC(CO)C(O2)C1N=[N+]=[N-] (stereo not drawn) | > 100 µM | > 100 µM | – | > 100 µM | > 100 µM | > 100 µM | – | – | > 100 µM | > 100 µM | – | > 100 µM | > 100 µM | > 100 µM | > 100 µM | > 100 µM | > 100 µM | > 100 µM | – | – |
| O=C1N(Cl)C(=O)C(c2ccc(Cl)cc2)(c2ccc(Cl)cc2)N1Cl | > 100 µM | > 100 µM | – | > 100 µM | > 100 µM | > 100 µM | – | – | > 100 µM | > 100 µM | – | > 100 µM | > 100 µM | > 100 µM | > 100 µM | – | > 100 µM | > 100 µM | – | – |
| CC1(C)CCc2ccc(OCCC(=O)O)cc2O1 | > 100 µM | > 100 µM | – | > 100 µM | > 100 µM | > 100 µM | – | – | > 100 µM | > 100 µM | – | > 100 µM | – | > 100 µM | > 100 µM | > 100 µM | > 100 µM | > 100 µM | – | – |
| CCN(CC)c1ccc2cc(C(N)=O)c(=N)oc2c1 | > 100 µM | > 100 µM | > 100 µM | – | > 100 µM | > 100 µM | > 100 µM | > 100 µM | > 100 µM | > 100 µM | > 100 µM | – | > 100 µM | > 100 µM | > 100 µM | > 100 µM | > 100 µM | – | > 100 µM | – |
| CSC1=C(C#N)C(=S)N=C(N)C1C(=O)Nc1ccc(C)cc1 (stereo not drawn) | > 100 µM | – | > 100 µM | > 100 µM | > 100 µM | > 100 µM | > 100 µM | > 100 µM | > 100 µM | > 100 µM | > 100 µM | – | > 100 µM | > 100 µM | > 100 µM | > 100 µM | > 100 µM | > 100 µM | > 100 µM | – |
| CCCCCCNC(=O)C(C)C1CCC2(C)C=CC(=O)C(C)=C2C1O (stereo not drawn) | > 100 µM | – | – | > 100 µM | > 100 µM | > 100 µM | – | – | > 100 µM | > 100 µM | > 100 µM | > 100 µM | > 100 µM | > 100 µM | > 100 µM | > 100 µM | > 100 µM | > 100 µM | – | > 100 µM |
| NC1CC(=O)c2cscc21 (stereo not drawn) | 41.7 µM | – | > 100 µM | > 100 µM | 88.5 µM | 33.3 µM | > 100 µM | 64.2 µM | > 100 µM | > 100 µM | > 100 µM | > 100 µM | > 100 µM | > 100 µM | 37.4 µM | – | 29.3 µM | 22.1 µM | > 100 µM | – |
| S=C1NCCN1 | > 100 µM | > 100 µM | – | > 100 µM | > 100 µM | > 100 µM | – | – | > 100 µM | – | – | > 100 µM | > 100 µM | > 100 µM | > 100 µM | > 100 µM | > 100 µM | > 100 µM | – | – |
| Cc1ccc(Nc2nc(=O)c3c4ccccc4n(C(=O)OC(C)(C)C)c3s2)cc1 | > 100 µM | > 100 µM | > 100 µM | > 100 µM | > 100 µM | 59 µM | > 100 µM | 38.1 µM | 50.4 µM | 43.1 µM | 32.5 µM | 65.6 µM | > 100 µM | > 100 µM | > 100 µM | 63.5 µM | 66 µM | 22.8 µM | 56.5 µM | – |
| COc1ccc2c(c1)CC[C@@H]1[C@@H]2CC[C@]2(C)C(=O)/C(=C/c3ccc(N(C)C)cc3)C[C@@H]12 | > 100 µM | > 100 µM | > 100 µM | > 100 µM | > 100 µM | > 100 µM | > 100 µM | > 100 µM | > 100 µM | > 100 µM | > 100 µM | > 100 µM | – | 52.3 µM | > 100 µM | > 100 µM | 71.7 µM | > 100 µM | 70.6 µM | – |
| Cc1ccc2c(c1)[nH]c(=S)n2C=C(C(N)=O)C(N)=O | > 100 µM | > 100 µM | > 100 µM | > 100 µM | > 100 µM | > 100 µM | > 100 µM | > 100 µM | > 100 µM | > 100 µM | > 100 µM | > 100 µM | > 100 µM | > 100 µM | > 100 µM | > 100 µM | > 100 µM | > 100 µM | > 100 µM | – |

Reference: PubChem BioAssay (NCI)
